Test: in vitro
Conditions: human, hela cells, % viability

| Compound | viability at 28.5 h, 10 µM [%] |
| --- | --- |
| O=C(O)c1sccc1Oc1ccc(F)cc1[N+](=O)[O-] [CBK066847] | 112 |
| CC(Oc1ccccc1)c1nnc(SCC(=O)Nc2cc(Cl)c(Cl)cc2Cl)n1C (centres unmarked) [CBK266262] | 108 |
| Cn1cnnc1SCC(=O)c1cccc(C(F)(F)F)c1 [CBK067718] | 93.5 |
| COC(=O)c1sc2ncccc2c1NS(=O)(=O)c1ccc(C(F)(F)F)cc1[N+](=O)[O-] [CBK049969] | 95.4 |
| CC(=O)c1cccc(NC(=O)c2cccn(Cc3ccc(C)cc3)c2=O)c1 [CBK294427] | 114 |
| Cc1cc(C)cc(NC(=O)c2ccccc2NS(=O)(=O)c2ccc(F)c(F)c2F)c1 [CBK113886] | 89.1 |
| O=C(N/N=C/C1C=Nc2ccccc21)c1cc([N+](=O)[O-])cc([N+](=O)[O-])c1 (centres unmarked) [CBK261485] | 89.8 |
| c1ccc(COc2ccc(CN3CCN(c4ccccn4)CC3)cc2)cc1 [CBK261865] | 89.3 |
| Cc1cccc(Nc2nc3nonc3[nH]/c2=N\N=C/c2cn(Cc3ccc(Cl)cc3Cl)c3ccccc23)c1C [CBK262378] | 93.3 |
| COc1ccc(C(=O)Nc2nc3ccc(S(C)(=O)=O)cc3s2)cc1 [CBK287338] | 94.3 |
| Cc1ccccc1C(c1cnccn1)N(C)C(=O)C1CCN(S(=O)(=O)C(C)C)CC1 (centres unmarked) [CBK060242] | 101 |
| Cc1cc(C)n(CC(=O)NC(Cc2cccs2)c2nccs2)n1 (centres unmarked) [CBK284686] | 85.8 |
| Cc1ccc2c(N)c(C(=O)c3ccccc3)sc2n1 [CBK115347] | 88.1 |
| C=CCn1c(-c2sc(NC(=O)CCc3ccco3)nc2C)n[nH]c1=S [CBK295312] | 89.4 |
| CCN1CCN(S(=O)(=O)c2ccccc2F)CC1 [CBK100558] | 104 |
| COC(=O)c1ccccc1NC(=O)CNS(=O)(=O)c1ccc(C)cc1 [CBK266000] | 94.7 |
| CCC(C)(C)c1ccc(S(=O)(=O)N2CCCN(Cc3ccnc4ccccc34)CC2)cc1 [CBK062865] | 92.1 |
| O=[N+]([O-])c1cccc(-c2cc(N3CCC(N4CCCCC4)CC3)ncn2)c1 [CBK037710] | 107 |
| CC(C)COc1ccc(-c2nonc2NC(=O)c2ccco2)cc1 [CBK299802] | 99.1 |
| COc1ccccc1C1CCN(C(=O)c2ccc(C(C)(C)C)cc2)CC1 [CBK086469] | 84.3 |
| COc1ccc(-c2cccc(Nc3cc(OC)c(OC)c(OC)c3)n2)cc1OC [CBK037634] | 55.7 |
| CC(C)(C)Oc1nc(=O)[nH]c(=O)[nH]1 [CBK007194] | 98.3 |

| Compound | viability at 28.5 h, 10 µM [%] |
| --- | --- |
| O=C(O)[C@H]1Nc2ccc(Br)cc2[C@H]2[C@H](O)[C@H](O)C[C@H]21 [CBK303242] | 115 |
| Cc1c(C(=O)N2CCC(CN)C2)nnn1-c1ccc2ncccc2c1 (centres unmarked) [CBK304734] | 101 |
| CCOC(=O)c1ccc(N2C(=O)CC(N3CCN(c4ncccn4)CC3)C2=O)cc1 (centres unmarked) [CBK263306] | 105 |
| CC(C)(C)c1ccc(Oc2c(C(F)(F)F)oc3cc(OCC(=O)O)ccc3c2=O)cc1 [CBK217882] | 94.1 |
| CCCN1CC(NS(=O)(=O)c2ccc(OC)c3c2CCCC3)CC1=O (centres unmarked) [CBK307098] | 79.7 |
| COC(=O)CCn1c(-c2ccccn2)cc2cccnc21 [CBK282634] | 89.8 |
| CC(NC(=O)CCc1cnn(C)c1)c1nc(-c2ccncc2)cs1 (centres unmarked) [CBK305496] | 91.4 |
| COc1cc(CNc2cncc(-c3ccc(F)cc3F)n2)cc(OC)c1OC [CBK065826] | 115 |
| COc1cc2cc(C(=O)N3CCN(Cc4ccc5c(c4)OCO5)CC3)c(=O)oc2cc1OC [CBK074790] | 102 |
| CCN(CC)CCNC(=O)c1c(C)[nH]c(/C=C2\C(=O)Nc3ccc(F)cc32)c1C [CBK149343] | 50.7 |
| COCCN(CCOC)C(=O)COc1c(Cl)cc(C(=O)O)cc1Cl [CBK296704] | 92.3 |
| COC1C(O)C(CO)OC1n1cnc2cnc(N)nc21 (centres unmarked) [CBK201290] | 84.9 |
| COc1cc(C(CC(=O)O)C(=O)O)c([N+](=O)[O-])cc1OC (centres unmarked) [CBK268541] | 96.9 |
| Cc1cc(NC(=O)c2cccs2)nc2c1c(=O)oc1ccccc12 [CBK287439] | 91.8 |
| COc1ccc([C@@H]2CCN(C(=O)c3cc(F)cc(F)c3)C[C@H]2O)cc1 [CBK283757] | 97 |
| CCn1c(CN2CCCC2c2nc(N(C)C)ncc2-c2cccc(F)c2)nc2ccccc21 (centres unmarked) [CBK286500] | 102 |
| Nc1ccccc1Sc1ncccc1C(F)(F)F [CBK093758] | 86.2 |
| CCN(CC(=O)NCc1ccc(Cl)cc1)S(=O)(=O)N1CCCCCC1 [CBK305733] | 110 |
| O=C(O)/C=N/NC(=O)c1ccco1 [CBK260923] | 89.5 |
| COC(=O)Cn1cc(CN2CC3CCCN3C[C@H]2C)c2ccccc21 (some centres unmarked) [CBK285436] | 92.2 |
| CN(CC(=O)N1CCN(Cc2ccccc2)CC1)S(=O)(=O)c1ccc2ccccc2c1 [CBK267117] | 90.1 |
| C[C@H](c1ccccc1)N1C(=O)[C@@H]2CN(C(=O)CC(C)(C)C)CCN2C1=O [CBK289638] | 89.5 |

| Compound | viability at 28.5 h, 10 µM [%] |
| --- | --- |
| Cc1cc(-c2ccccc2)nn1C(CC(=O)O)C(=O)O (centres unmarked) [CBK263480] | 91.6 |
| CC(=O)c1cc(C(=O)Nc2cnn(Cc3ccc(F)cc3)c2)cs1 [CBK282528] | 104 |
| CCN=C(S)NS(=O)(=O)c1ccc(C)cc1 [CBK288452] | 86.2 |
| CC(C)c1cc(C(=O)N2CCN(C)C(=O)C2Cc2ccccc2-c2ccc(F)cc2)[nH]n1 (centres unmarked) [CBK285833] | 92.1 |
| COC(=O)N1CCCCC1C(=O)NCCc1nc(C)cc(C(F)(F)F)n1 (centres unmarked) [CBK306752] | 94.2 |
| COc1ccc(C(=O)Nc2ccc(N3CCN(C(=O)C(C)(C)C)CC3)cc2)cc1 [CBK270266] | 99 |
| COc1cc(OC)nc(C(NC(=O)C2CCN(Cc3cn(C)c4ccccc34)CC2)c2ccc(F)cc2)n1 (centres unmarked) [CBK148185] | 90.7 |
| COc1ccc([C@@]23CC[C@@H](NC(=O)Nc4cccc(S(=O)(=O)C(F)(F)F)c4)C[C@@H]2N(C)CC3)cc1OC [CBK051275T] | 99 |
| CC(C)(C)C1CCC(OC(=O)CCC(=O)O)CC1 (centres unmarked) [CBK026882] | 105 |
| O=C(N/N=C/c1cccc(OC(=O)c2cccc(Br)c2)c1)c1ccncc1 [CBK262249] | 112 |
| COCCN1C(=O)/C(=C2/C(=O)N(CC(=O)Nc3ccccc3)c3ccccc32)SC1=S [CBK264489] | 91.3 |
| Cc1noc(C)c1C(=O)Nc1cnc(-c2ccc(F)cc2)c(-c2ccsc2)n1 [CBK036781] | 97.6 |
| Cc1ccc(OC(C)C(=O)NCc2ccccc2)cc1 (centres unmarked) [CBK269016] | 101 |
| O=S(=O)(CCSc1ccc(Cl)cc1)Oc1ccccc1 [CBK261021] | 102 |
| FC(F)(F)c1ccc(N2CCNCC2)nc1OCCOc1ccc2ccccc2c1 [CBK200002A] | 92.1 |
| C=C(C)CNC(=O)c1cc(-c2ccc(OC)cc2)cnc1NCC1CC1 [CBK076339] | 97.7 |
| CCC(=O)Nc1ccc2oc(-c3cccc(C)c3)nc2c1 [CBK263065] | 89.6 |
| CCc1c(C)nc2ccc(NC(C)=O)cc2c1SCCC(=O)O [CBK159465T] | 98.7 |
| COc1cc(CN2CCNCC2)c2ccn(S(=O)(=O)c3ccccc3Cl)c2c1 [CBK144483T] | 91.9 |
| CC(=O)N1c2ccc(NC(=O)C3(C)CCCO3)cc2CC1C (centres unmarked) [CBK282702] | 98.5 |
| Nc1ccc(-c2cn3ccnc3c(NCc3cccs3)n2)cc1 [CBK066564] | 95.5 |
| CC(=O)Nc1ccc(S(=O)(=O)N2CCN(C(=O)c3ccco3)CC2)cc1 [CBK068319] | 90.5 |

| Compound | viability at 28.5 h, 10 µM [%] |
| --- | --- |
| CCCCc1c(C)nc2c(OC)cccc2c1SCCC(=O)O [CBK126917] | 99.5 |
| CCc1nnc(NS(=O)(=O)c2ccc(NC(=O)c3ccc(Cl)cc3Cl)cc2)s1 [CBK045493] | 88.5 |
| CCCc1ccc(S(=O)(=O)n2ccn(-c3ccc(Oc4ccccc4)cc3)c2=O)cc1 [CBK106648] | 107 |
| C=Cn1cccc1C(=O)N1C2CCC1c1cnc3cc(C)nn3c1C2 (centres unmarked) [CBK284382] | 89.2 |
| O=C(O)c1ccc(CNC2CC(=O)N(c3ccc(F)cc3)C2=O)cc1 (centres unmarked) [CBK286727] | 95.3 |
| O=C(N[C@H]1CO[C@H]2[C@@H]1OC[C@@H]2n1nnnc1Oc1ccc(-n2ccnc2)cc1)c1ccco1 [CBK289486] | 91.9 |
| CN(CC(=O)NNC(=O)c1cccs1)S(=O)(=O)c1ccc2ccccc2c1 [CBK267409] | 90.8 |
| CCC1CCCCN1C(=O)c1ccc(NC2CC2)nc1 (centres unmarked) [CBK304815] | 92.2 |
| O=C(CSc1nnc(-c2cccs2)n1-c1ccccc1)c1c[nH]c2ccccc12 [CBK268452] | 101 |
| Cc1nn(C)c(N2CCNCC2)c1NC(=O)Cc1cn(C)c2ccccc12 [CBK050254T] | 94.5 |
| Cc1nc(NC(=O)C2CC(=O)N(c3cccc(C(C)C)c3)C2)sc1-c1n[nH]c(=S)n1C (centres unmarked) [CBK295306] | 91 |
| COc1ccc(OCCCOc2ccccc2C(C)C)cc1 [CBK026366] | 90.8 |
| Cc1sc2c(c1C)c(=O)nc1scc(CC(=O)NCCO)n12 [CBK266726] | 96.3 |
| CCOC(=O)C1CCCCN1Cc1ccc(OC)c(O)c1 (centres unmarked) [CBK261560] | 98.3 |
| N#Cc1ccc(CSc2nnc(COc3ccccc3)n2Cc2ccco2)cc1 [CBK267539] | 87.9 |
| COc1ccccc1CC(=O)N1CC[C@@H]2NC(=O)[C@H]3C[C@H](NC(=O)C4CC4)CN3C(=O)[C@H]21 [CBK289267] | 103 |
| Cn1nc(C2CCCN(C(=O)c3cccc(F)c3)C2)c2cccnc21 (centres unmarked) [CBK282155] | 85.8 |
| C=CCNC(=O)c1cc(Br)cnc1NCC1CC1 [CBK076424] | 102 |
| CN(C)CCN(Cc1ccccc1)Cc1ccc(C(F)(F)F)cc1 [CBK261927] | 120 |
| CC1(C)CC(=O)C(=CNCCCn2ccnc2)C(=O)C1 [CBK261686] | 91.3 |

From article PMC12040169 (PLOS Biology, 2025)
